Columns and labels:
LYNa = molecular target: T1, LYNa (Homo sapiens, UniProt P07948); assay: Off-chip Mobility Shift Assay, kinase inhibition; format: biochemical
T1 construct: purchased Carna Biosciences, Inc

[1] = Pharmacokinetics in Sprague-Dawley rats, 2-in-1 dosing; format: in vivo; details: rat; for V: intravenous 1 mg/kg
Method: Sprague-Dawley rats (approximate weight 275-300 g, N=3) were dosed intravenously at 5 mL/kg and orally at 10 mL/kg with the above dosing solutions. Blood samples were collected into tubes containing EDTA as the anticoagulant at 0, 0.25 (intravenous only), 0.5, 1, 2, 4, 8, 10, and 24 h post-dosing, and plasma samples were prepared by centrifugation. The plasma samples were mixed with 3× volumes of acetonitrile containing 100 nM reserpine as the internal standard, and centrifuged at 4000 RPM for 15 min. The supernatants were injected for LC/MS analysis which were carried out on a AB Sciex 4000 Q Trap LC/MS/MS system coupled with Shimadzu Prominence UFLCXR 20 series (including a CBM-20A controller, two LC-20ADXR solvent delivery units, SIL-20AC HT autosampler, CTO-20A column oven, and a SPD-20A UV detector). The samples were separated on a Phenomenex Columbus column (C18, 4 μm, 50×2 mm) eluted with two solvent systems: 2 mM ammonium acetate in water containing 0.1% formic acid (A) and methanol (B) at a linear gradient starting with 25% B. Electrospray ionization in positive mode was used to acquire LC/MS/MS data.

[2] = system: battery of selected protein kinases; assay: In vitro screen of a battery of selected protein kinases (summary statement); format: biochemical; details: BTK, BMX, ABL, ABL(E255K), SRC, ACK, ARG, BLK, DDR2, EPHA, FGR, FMS, FRK, FYN, HCK, LCK, LYN, PDGFRα, PDGFRβ, YES, PIK3CA/PIK3R1, among others
PDGFRβ = molecular target: T2, PDGFRβ (Homo sapiens, UniProt P09619); assay: Off-chip Mobility Shift Assay, kinase inhibition; format: biochemical
T2 construct: purchased Carna Biosciences, Inc

FGR = molecular target: T3, FGR (Homo sapiens, UniProt P09769); assay: Off-chip Mobility Shift Assay, kinase inhibition; format: biochemical
T3 construct: purchased Carna Biosciences, Inc

DDR2 = molecular target: T4, DDR2 (Homo sapiens, UniProt Q16832); assay: Off-chip Mobility Shift Assay, kinase inhibition; format: biochemical
T4 construct: purchased Carna Biosciences, Inc
T4 sequence (Q16832 22-855): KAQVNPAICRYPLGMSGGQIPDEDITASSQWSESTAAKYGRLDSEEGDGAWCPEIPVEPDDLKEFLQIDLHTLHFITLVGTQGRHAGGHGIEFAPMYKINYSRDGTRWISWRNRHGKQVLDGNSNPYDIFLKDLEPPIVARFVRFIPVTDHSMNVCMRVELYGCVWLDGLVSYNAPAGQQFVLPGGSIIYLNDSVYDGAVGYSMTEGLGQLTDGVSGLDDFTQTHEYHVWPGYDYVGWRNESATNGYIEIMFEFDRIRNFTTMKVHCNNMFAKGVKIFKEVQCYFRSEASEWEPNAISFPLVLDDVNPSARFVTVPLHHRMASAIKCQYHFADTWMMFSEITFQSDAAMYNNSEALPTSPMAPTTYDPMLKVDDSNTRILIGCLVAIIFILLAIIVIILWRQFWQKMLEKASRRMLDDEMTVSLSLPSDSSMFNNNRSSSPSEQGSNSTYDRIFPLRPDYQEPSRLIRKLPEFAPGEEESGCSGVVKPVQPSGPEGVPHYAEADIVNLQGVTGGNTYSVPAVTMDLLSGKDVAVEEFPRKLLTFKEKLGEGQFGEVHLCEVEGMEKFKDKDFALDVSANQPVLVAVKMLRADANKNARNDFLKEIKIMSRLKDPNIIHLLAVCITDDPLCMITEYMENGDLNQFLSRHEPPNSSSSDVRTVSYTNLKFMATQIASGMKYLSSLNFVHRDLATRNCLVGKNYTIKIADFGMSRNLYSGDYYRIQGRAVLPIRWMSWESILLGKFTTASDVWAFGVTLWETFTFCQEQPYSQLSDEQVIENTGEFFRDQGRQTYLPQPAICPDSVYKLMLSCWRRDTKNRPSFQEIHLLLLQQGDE

PDGFRα = molecular target: T5, PDGFRα (Homo sapiens, UniProt P16234); assay: Off-chip Mobility Shift Assay, kinase inhibition; format: biochemical
T5 construct: purchased Carna Biosciences, Inc

HCK = molecular target: T6, HCK (Homo sapiens, UniProt P08631); assay: Off-chip Mobility Shift Assay, kinase inhibition; format: biochemical
T6 construct: purchased Carna Biosciences, Inc

ARG = molecular target: T7, ARG (Homo sapiens, UniProt P42684); assay: Off-chip Mobility Shift Assay, kinase inhibition; format: biochemical
T7 construct: purchased Carna Biosciences, Inc

Mino = assay: Cell inhibition assay (PrestoBlue, 48 h); format: cell-based; details: Homo sapiens, Mino cells, read-out: IC50, inhibition of growth
SU-DHL-4 = assay: Cell inhibition assay (PrestoBlue, 48 h); format: cell-based; details: Homo sapiens, SU-DHL-4, 48 h, SU-DHL-4 diffuse large B-cell lymphoma cells, read-out: IC50, inhibition of growth
[3] = Table 2, co-dosed with compound IV
[4] = Table 3, co-dosed with compound X

T1 sequence (P07948 whole entry): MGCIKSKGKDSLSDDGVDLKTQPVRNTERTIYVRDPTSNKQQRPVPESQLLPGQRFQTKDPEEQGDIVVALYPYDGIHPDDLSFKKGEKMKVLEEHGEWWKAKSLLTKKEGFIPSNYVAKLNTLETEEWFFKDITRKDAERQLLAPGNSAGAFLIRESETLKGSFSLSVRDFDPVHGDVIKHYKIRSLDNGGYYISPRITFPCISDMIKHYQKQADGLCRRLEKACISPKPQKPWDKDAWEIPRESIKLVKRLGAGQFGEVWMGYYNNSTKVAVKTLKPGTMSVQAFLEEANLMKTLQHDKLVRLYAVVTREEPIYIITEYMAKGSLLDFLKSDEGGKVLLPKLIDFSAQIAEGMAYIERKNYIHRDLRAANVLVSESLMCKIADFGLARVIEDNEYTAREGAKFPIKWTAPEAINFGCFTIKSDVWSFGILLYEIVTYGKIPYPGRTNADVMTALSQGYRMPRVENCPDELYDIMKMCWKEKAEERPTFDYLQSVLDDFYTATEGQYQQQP
T5 sequence (P16234 24-1089): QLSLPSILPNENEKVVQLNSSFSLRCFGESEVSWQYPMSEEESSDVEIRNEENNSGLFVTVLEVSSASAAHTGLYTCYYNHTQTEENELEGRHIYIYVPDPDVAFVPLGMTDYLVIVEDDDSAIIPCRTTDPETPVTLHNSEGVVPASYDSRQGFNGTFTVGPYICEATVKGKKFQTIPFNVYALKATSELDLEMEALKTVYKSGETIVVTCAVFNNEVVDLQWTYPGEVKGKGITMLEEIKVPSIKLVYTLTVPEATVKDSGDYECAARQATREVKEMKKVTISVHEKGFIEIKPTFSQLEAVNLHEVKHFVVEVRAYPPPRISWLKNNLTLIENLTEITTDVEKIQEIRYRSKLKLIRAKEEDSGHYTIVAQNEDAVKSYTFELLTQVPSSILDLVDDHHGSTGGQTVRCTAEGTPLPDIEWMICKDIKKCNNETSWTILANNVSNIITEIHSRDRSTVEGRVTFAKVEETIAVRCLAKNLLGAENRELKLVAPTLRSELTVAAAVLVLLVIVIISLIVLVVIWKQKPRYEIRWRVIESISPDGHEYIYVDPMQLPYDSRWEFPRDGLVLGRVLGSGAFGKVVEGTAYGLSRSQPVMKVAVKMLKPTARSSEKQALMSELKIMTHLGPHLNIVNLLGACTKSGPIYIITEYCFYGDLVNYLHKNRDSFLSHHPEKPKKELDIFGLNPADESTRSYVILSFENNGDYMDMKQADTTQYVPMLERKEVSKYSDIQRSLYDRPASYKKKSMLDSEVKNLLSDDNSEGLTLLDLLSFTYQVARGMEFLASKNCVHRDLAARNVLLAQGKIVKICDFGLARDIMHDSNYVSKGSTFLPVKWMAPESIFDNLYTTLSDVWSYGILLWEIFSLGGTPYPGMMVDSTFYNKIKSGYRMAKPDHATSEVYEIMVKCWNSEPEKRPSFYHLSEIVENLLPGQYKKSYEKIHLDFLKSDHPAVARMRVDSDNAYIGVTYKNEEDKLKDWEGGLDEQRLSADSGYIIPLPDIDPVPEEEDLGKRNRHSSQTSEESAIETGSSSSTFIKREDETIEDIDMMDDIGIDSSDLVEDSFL
T3 sequence (P09769 whole entry): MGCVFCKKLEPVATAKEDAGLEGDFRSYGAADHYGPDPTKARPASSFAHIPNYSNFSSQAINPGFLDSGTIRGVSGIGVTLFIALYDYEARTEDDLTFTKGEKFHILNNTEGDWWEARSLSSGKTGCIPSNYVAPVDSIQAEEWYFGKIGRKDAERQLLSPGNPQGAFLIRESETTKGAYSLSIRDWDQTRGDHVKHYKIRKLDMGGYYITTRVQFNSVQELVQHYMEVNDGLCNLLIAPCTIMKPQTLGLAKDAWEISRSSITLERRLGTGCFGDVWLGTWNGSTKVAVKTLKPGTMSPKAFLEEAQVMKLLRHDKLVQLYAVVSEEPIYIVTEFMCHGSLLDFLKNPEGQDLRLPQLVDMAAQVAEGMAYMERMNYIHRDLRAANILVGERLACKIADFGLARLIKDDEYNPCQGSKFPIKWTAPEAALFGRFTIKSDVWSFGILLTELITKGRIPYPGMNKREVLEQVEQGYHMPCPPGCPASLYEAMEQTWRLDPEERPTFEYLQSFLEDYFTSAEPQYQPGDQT
T2 sequence (P09619 33-1106): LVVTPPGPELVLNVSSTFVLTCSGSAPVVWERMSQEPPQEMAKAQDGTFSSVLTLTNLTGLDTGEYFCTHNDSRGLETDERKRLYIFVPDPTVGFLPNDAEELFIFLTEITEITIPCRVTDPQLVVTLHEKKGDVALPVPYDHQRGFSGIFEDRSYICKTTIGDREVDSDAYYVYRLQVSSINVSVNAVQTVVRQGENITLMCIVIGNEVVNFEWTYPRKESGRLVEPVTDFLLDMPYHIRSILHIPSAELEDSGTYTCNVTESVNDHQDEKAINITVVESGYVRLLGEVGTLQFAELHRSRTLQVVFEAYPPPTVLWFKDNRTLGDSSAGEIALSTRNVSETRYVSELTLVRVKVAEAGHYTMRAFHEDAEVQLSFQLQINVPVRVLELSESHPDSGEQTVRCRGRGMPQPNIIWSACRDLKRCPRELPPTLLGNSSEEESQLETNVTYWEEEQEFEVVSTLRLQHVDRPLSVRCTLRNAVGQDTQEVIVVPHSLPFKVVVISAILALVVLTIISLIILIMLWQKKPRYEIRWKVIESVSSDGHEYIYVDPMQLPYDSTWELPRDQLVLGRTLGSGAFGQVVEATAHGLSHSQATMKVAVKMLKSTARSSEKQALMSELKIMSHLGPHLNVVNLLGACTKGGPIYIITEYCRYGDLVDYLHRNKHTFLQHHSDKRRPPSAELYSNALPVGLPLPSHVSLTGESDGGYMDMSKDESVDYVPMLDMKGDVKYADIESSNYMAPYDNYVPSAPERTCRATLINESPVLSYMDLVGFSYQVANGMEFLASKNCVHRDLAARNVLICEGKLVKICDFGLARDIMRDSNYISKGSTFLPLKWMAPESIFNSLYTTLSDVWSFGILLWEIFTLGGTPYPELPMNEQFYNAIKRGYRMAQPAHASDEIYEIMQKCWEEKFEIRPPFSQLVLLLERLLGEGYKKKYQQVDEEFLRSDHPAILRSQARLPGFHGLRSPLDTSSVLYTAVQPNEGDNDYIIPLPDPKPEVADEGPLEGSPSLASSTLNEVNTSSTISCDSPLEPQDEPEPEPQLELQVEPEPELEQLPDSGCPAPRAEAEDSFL
T7 sequence (P42684 whole entry): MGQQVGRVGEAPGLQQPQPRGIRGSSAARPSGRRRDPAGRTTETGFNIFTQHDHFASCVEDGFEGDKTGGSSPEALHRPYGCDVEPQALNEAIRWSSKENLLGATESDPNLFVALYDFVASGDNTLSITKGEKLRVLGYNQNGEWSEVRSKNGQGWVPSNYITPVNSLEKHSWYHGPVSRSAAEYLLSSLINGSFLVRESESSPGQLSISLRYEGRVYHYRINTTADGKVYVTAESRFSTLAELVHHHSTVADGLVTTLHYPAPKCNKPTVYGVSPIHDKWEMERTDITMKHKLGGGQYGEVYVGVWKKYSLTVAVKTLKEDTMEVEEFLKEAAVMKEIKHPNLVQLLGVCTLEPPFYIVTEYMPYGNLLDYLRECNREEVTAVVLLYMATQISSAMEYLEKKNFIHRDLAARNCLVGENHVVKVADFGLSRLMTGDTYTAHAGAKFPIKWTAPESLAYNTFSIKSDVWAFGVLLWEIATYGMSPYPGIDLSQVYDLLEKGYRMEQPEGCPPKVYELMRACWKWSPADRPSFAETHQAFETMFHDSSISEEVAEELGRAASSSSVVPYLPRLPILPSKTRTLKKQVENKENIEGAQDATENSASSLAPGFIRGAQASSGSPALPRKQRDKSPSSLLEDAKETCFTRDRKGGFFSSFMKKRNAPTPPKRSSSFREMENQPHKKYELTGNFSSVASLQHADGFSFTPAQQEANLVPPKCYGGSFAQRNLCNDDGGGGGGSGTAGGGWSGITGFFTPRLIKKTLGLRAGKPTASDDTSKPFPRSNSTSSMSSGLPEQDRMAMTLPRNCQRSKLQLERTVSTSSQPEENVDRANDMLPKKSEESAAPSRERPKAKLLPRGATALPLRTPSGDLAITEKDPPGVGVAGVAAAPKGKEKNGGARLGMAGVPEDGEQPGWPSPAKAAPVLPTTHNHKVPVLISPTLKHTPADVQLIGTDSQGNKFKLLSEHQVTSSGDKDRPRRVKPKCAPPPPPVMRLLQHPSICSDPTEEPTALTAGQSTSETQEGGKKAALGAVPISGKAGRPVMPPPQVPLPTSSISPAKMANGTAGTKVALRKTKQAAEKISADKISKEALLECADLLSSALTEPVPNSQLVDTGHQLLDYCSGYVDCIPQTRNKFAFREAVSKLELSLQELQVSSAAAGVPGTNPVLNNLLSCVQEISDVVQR
T6 sequence (P08631 whole entry): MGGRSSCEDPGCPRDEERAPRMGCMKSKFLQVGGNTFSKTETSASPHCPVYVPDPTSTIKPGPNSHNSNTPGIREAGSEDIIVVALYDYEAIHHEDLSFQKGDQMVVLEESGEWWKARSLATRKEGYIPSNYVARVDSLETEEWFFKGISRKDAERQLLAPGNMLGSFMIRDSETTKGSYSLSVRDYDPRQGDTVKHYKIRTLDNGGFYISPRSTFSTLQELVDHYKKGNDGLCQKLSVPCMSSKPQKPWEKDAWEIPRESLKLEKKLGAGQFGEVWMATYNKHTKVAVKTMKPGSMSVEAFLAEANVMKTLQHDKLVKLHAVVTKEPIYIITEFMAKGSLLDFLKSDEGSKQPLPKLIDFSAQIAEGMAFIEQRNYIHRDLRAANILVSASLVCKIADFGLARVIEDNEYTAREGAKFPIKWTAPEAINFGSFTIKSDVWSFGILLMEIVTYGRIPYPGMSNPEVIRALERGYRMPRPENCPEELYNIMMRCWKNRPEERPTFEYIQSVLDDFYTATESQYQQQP

IC50 (SU-DHL-4) [nM] | F, percent oral bioavailability ([1]; PO 5 mg/kg versus intravenous 1 mg/kg, AUCinf dose normalized, Table 3) [%] | SMILES | inhibition at 0.01 µM (LYNa) [%] | V [1, 3] [L/kg] | V [1, 4] [L/kg] | activity to inhibit kinases [2] | inhibition at 0.01 µM (PDGFRβ) [%] | inhibition at 0.01 µM (FGR) [%] | inhibition at 0.01 µM (DDR2) [%] | inhibition at 0.01 µM (PDGFRα) [%] | inhibition at 0.01 µM (HCK) [%] | inhibition at 0.01 µM (ARG) [%] | IC50 (Mino) [nM]
– | – | [2H]c1cc(C)c(NC(=O)c2cnc(Nc3cc(N4CCN(CCO)CC4)nc(C)n3)s2)c(Cl)c1 [Compound III] | > 50 | 3 ± 0 | 3 ± 0 | potent activity | > 50 | > 50 | > 50 | > 50 | > 50 | > 50 | –
< 20 | – | Cc1nc(Nc2ncc(C(=O)Nc3c(C)cccc3Cl)s2)cc(N2CCCC2)n1 [Compound XIV, N-(2-chloro-6-methylphenyl)-2-[[2-methyl-6-(pyrrolidin-1-yl)pyrimidin-4-yl]amino]thiazole-5-carboxamide] | – | – | – | – | – | – | – | – | – | – | < 50
– | 3.9±1 | Cc1nc(Nc2ncc(C(=O)Nc3c(C)cccc3Cl)s2)cc(N2CCN(CCO)CC2)n1 [Dasatinib, reference compound] | – | 3 ± 0 | 2 ± 0 | – | – | – | – | – | – | – | –
